According to patent US12595269B2, “Morpholine-like monoamine releasers” (Solvonis Therapeutics Ireland Holdings Limited, priority 2022, dated 2026):
Where two headings read alike, the source gives them in different places.

Experiment: Pharmacokinetic and brain penetration study, intravenous and oral administration in rats
Assay type: in vivo
Settings: rat; for concentration at 8 h: read-out: Clast; for Vd: read-out: Vss
Description: Methods and Procedure: The study was conducted in agreement with procedures to assure data integrity and GLP principles. Three experimental groups, as outlined below, were included in the study:
Group 1: Exemplary compound 522A was administered via the IV route to three rats at a target dose level of 0.5 mg/kg. Blood and brain samples were collected at 2h after IV administration.
Group 2: Exemplary compound 522A was administered via the IV route to three rats (brain penetration group) at a target dose level of 0.5 mg/kg. Blood and brain samples were collected at 2h after IV administration.
Group 3: Exemplary compound 522A was orally administered to three rats at a target dose level of 1 mg/kg. Blood samples were collected up to 24h after oral administration.
All test formulations were prepared on the day of administration prior to dosing, stored at room temperature, and used as soon as possible. Formulations were prepared and administered by volume for both IV and oral dosing. Actual body weights were determined on the day of dose administration, and the dose volumes were adjusted to the weight of the animal at the time of dose administration.
Blood was collected into K3 EDTA tubes at each of the following time points post-administration: • Group 1 (ITS): 0.083, 0.33, 1, 2, 4, 6, 8, and 24 hours after dosing • Group 2 (ITS): 2 hours after dosing for terminal brain analysis • Group 3 (Oral): 0.250, 0.5, 1, 2, 4, 6, 8, and 24 hours after dosing
All blood samples were thoroughly but gently mixed following collection and then placed on wet ice. Within 0.5 h of collection, blood was centrifuged (3000 g for 10 minutes at approximately 4° C.). Within 0.5 hours, 20 μL of each plasma sample was transferred into micronic tubes containing 80 μL of 0.1N Hepes buffer (pH 7.0-7.5). Residual plasma was transferred in micronic tubes as a second aliquot.
Brain specimens were diluted with 4 volumes of 0. IN Hepes buffer and homogenized using the Precellys system. Blood and brain samples were assayed using an optimized method based on protein precipitation with acetonitrile followed by HPLC/MS-MS analysis. Given the unknown stability of analytes in blood and brain, Calibration standards (CS) and Quality control samples (QC) were prepared in blood and brain samples on the day of dosing and stored together with study samples. It is assumed this procedure accounted for any possible analyte degradation.
Study samples, CS, QC, and blanks were spiked with an internal standard (IS), to improve the precision of the assay. Study samples were analyzed together with CS, QC and blank samples (including double blanks). From the calibration curve, the linear range of the analytical method was determined and the lower/upper limits of quantitation were specified.
The results of blood and brain specimens were subjected to non-compartmental pharmacokinetic analysis using Phoenix WinNonlin 6.3, with the following parameters reported: Calculated concentration of test items in the corresponding formulation (expressed as mg/mL), dose levels (expressed as mg/kg) for each compound, actual collection times (expressed as hh: mM), blood concentrations (expressed as ng/ml) for each compound, brain concentrations (expressed as ng/g) for each compound, PK parameters (iv: Cmax, AUC, CLp, Vss, t1/2, if applicable; oral (po): Cmax, tmax, AUC, F %, Fa %, Eh, AUC BB ratio, if applicable) for each compound, and abnormal clinical signs and relevant findings, if any.

[1] = plasma, iv, 0.5 mg/kg, 0.5 mg/kg (Table 8)
[2] = plasma, iv, 0.5 mg/kg, 0.5 mg/kg (Table 9)
[3] = plasma, iv, 0.5 mg/kg, IV, 0.5 mg/kg (Table 8)
[4] = plasma, iv, 0.5 mg/kg, IV, 0.5 mg/kg (Table 9)

In the case of `Clc1ccc(C23CNC(CO2)C3)cc1Cl` (stereo not shown) [522A, 1-(3,4-dichlorophenyl)-2-oxa-5-azabicyclo[2.2.1]heptane], the Kp uu at 2 h (brain and blood, 0.5 mg/kg, two hours after IV administration, read-out: concentration ratio of unbound drug in brain to blood (kp, uu)) is reported as 0.77, the Kp at 2 h (brain and plasma, 0.5 mg/kg, two hours after IV administration, read-out: mean brain-to-plasma ratio) is reported as 4.96 and the Tmax (plasma, IV, 0.5 mg/kg (Table 8)) is reported as 0.08 h. It also gave a Tmax (plasma, oral (PO), 1 mg/kg) of 2 h, a bioavailability (plasma, oral (PO), 1 mg/kg versus IV) of 30.8% and a Tlast (IV, 0.5 mg/kg (Table 8)) of 8 h. For the same compound, the Tlast (IV, 0.5 mg/kg (Table 9)) was 8 h, the concentration at 2 h (brain, iv, 0.5 mg/kg, two hours after IV administration, 0.5 mg/kg, read-out: free concentration in the brain) was 42.8 nM and the concentration at 2 h (brain, iv, 0.5 mg/kg, two hours after IV administration, 0.5 mg/kg, read-out: total concentration in the brain) was 1930 nM. The Tlast (oral (PO), 1 mg/kg) was 8 h, the AUC(0-inf) [1] was 1480 ng·h/mL and the AUC(0-t) [1] was 1460 ng·h/mL. For the same compound, the Cmax [1] was 1890 ng/mL, the clearance [1] was 5.71 mL/min/kg and the half-life [1] was 1.36 h. It also gave an AUC(0-inf) [2] of 799 ng·h/mL, an AUC(0-t) [2] of 772 ng·h/mL and a Cmax [2] of 878 ng/mL. It also gave a clearance [2] of 11.6 mL/min/kg, a half-life [2] of 1.65 h and a concentration at 8 h [3] of 9.32 ng/mL. The Vd [3] was 0.411 L/kg, the concentration at 8 h [4] was 10.6 ng/mL and the Vd [4] was 1.48 L/kg. For the same compound, the concentration at 2 h (plasma, iv, 0.5 mg/kg, two hours after IV administration, 0.5 mg/kg, read-out: free concentration in plasma) was 71.3 nM, the concentration at 2 h (plasma, iv, 0.5 mg/kg, two hours after IV administration, 0.5 mg/kg, read-out: total plasma concentration) was 594 nM and the AUC(0-inf) (plasma, po, 1 mg/kg, oral (PO)) was 509 ng·h/mL. It also gave an AUC(0-t) (plasma, po, 1 mg/kg, oral (PO)) of 442 ng·h/mL, a Cmax (plasma, po, 1 mg/kg, oral (PO)) of 102 ng/mL and a half-life (plasma, po, 1 mg/kg, oral (PO)) of 2.42 h. For the same compound, the concentration at 8 h (plasma, po, 1 mg/kg, oral (PO), 1 mg/kg) was 19.3 ng/mL.
